Values belong to the compound of their own block, whether it stands above or below them.
Experiments:
ARK5 = biological target: T1, ARK5 (Homo sapiens, UniProt O60285); set-up: method as in PMID 21051136; details: 10 µM; average of two data points; cited from earlier work
T1 sequence (O60285 1-661): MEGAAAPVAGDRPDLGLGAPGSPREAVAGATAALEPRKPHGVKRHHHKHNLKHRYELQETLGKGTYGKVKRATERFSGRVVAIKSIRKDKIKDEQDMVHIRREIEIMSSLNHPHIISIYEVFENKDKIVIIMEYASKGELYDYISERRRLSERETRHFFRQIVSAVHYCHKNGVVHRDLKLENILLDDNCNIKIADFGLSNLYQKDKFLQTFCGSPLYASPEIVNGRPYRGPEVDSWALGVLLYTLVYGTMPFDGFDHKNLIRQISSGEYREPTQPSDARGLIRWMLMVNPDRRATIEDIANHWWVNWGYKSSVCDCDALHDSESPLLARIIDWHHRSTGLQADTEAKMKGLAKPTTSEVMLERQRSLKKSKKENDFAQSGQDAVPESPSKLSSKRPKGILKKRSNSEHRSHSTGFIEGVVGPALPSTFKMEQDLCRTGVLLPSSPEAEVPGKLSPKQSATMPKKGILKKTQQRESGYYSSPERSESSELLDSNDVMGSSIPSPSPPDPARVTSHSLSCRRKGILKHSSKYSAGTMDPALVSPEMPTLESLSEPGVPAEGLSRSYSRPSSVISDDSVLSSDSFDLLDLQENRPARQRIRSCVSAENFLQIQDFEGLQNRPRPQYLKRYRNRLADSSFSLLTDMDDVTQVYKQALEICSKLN

PIM-3 = PIM-3 (Homo sapiens, UniProt Q86V86); set-up: method as in PMID 21051136; details: cited from earlier work
JNK1 [1] = biological target: T2, JNK1 (Homo sapiens, UniProt P45983); set-up: method as in PMID 21051136; details: 10 µM; average of two data points; cited from earlier work
T2 sequence (P45983 whole entry, species assumed): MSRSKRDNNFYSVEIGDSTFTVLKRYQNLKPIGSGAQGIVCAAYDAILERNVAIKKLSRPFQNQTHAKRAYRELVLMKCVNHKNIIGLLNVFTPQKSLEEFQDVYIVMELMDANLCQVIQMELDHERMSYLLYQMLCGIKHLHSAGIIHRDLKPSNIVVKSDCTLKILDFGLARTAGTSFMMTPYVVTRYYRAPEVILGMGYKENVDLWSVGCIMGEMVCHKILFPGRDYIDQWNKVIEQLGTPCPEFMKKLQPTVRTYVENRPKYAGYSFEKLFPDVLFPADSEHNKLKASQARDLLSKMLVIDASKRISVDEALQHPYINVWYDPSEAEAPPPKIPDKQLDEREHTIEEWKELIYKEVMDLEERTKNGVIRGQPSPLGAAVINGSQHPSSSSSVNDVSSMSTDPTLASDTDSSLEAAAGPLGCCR

B-RAF-V600E = B-RAF-V600E (Homo sapiens, UniProt P15056, V600E); set-up: method as in PMID 21051136; details: 10 µM; average of two data points; cited from earlier work
MET = MET (Homo sapiens, UniProt P08581); set-up: method as in PMID 21051136; details: 10 µM; average of two data points; cited from earlier work
Chain of MET (P08581 25-1390): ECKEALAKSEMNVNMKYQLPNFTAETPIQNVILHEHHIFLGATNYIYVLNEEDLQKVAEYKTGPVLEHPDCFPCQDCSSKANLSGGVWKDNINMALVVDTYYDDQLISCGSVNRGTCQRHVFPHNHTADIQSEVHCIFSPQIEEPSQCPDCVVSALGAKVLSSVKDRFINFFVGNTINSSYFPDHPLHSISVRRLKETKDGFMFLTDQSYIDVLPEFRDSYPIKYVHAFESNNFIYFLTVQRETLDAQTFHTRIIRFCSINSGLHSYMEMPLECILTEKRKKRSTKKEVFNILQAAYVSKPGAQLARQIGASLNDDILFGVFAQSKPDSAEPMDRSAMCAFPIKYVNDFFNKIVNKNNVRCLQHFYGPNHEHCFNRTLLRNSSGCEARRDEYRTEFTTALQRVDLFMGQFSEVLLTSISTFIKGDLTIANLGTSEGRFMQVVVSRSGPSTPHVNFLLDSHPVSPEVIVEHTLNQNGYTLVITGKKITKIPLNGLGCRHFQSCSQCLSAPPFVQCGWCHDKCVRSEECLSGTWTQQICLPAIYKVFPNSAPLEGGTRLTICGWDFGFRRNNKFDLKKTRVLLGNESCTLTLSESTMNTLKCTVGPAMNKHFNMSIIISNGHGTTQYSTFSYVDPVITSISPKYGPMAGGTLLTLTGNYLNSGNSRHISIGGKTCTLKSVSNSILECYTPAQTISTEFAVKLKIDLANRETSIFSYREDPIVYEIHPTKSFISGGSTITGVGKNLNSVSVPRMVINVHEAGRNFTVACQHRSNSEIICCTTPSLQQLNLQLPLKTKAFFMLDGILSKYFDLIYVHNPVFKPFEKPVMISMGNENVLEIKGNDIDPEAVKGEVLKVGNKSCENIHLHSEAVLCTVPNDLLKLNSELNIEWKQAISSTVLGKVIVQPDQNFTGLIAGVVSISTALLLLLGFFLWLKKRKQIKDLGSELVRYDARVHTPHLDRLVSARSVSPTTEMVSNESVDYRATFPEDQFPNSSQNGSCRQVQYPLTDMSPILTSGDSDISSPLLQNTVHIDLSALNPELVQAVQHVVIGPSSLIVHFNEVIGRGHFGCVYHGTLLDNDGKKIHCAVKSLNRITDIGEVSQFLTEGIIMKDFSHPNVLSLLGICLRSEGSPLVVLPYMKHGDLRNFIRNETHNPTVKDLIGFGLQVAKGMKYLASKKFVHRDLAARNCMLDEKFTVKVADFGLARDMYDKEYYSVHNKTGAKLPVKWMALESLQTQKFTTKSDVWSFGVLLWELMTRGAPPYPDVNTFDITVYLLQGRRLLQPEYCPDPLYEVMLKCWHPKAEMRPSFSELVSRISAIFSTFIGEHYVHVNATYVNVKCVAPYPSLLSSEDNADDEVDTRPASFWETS

EGF-R = EGF-R (Homo sapiens, UniProt P00533); set-up: method as in PMID 21051136; details: 10 µM; average of two data points; cited from earlier work
Chain of EGF-R (P00533 25-1210, species assumed): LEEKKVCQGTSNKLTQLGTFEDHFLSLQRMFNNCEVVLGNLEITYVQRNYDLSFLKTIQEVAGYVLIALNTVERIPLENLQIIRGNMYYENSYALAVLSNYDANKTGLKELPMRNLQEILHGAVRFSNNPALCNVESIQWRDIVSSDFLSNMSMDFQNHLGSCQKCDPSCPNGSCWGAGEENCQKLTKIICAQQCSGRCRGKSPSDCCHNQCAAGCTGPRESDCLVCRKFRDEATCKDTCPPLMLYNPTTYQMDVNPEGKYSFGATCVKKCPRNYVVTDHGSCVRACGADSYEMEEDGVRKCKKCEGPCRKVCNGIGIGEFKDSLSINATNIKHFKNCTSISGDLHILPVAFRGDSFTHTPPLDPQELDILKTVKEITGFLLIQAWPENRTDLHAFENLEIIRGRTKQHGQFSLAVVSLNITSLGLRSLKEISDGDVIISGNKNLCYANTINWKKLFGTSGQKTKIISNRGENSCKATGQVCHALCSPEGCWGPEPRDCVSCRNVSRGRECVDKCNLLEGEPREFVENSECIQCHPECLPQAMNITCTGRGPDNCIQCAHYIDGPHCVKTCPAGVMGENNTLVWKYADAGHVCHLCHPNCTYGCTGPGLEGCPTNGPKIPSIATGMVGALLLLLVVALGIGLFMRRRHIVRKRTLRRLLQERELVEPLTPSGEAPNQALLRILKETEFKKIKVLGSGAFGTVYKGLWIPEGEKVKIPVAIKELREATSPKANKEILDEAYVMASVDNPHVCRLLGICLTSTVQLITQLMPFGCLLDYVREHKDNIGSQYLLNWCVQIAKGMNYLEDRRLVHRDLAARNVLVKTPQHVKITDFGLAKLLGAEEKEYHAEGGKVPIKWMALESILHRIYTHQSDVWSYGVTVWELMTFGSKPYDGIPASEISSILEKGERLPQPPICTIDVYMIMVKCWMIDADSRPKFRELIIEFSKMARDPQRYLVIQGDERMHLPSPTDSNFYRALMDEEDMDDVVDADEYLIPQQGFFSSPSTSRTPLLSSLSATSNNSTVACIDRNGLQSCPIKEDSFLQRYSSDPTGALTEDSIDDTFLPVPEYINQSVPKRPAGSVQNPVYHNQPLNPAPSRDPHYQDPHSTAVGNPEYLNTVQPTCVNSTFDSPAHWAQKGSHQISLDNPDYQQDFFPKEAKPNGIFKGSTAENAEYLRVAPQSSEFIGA

FGF-R1 = FGF-R1 (Homo sapiens, UniProt P11362); set-up: method as in PMID 21051136; details: 10 µM; average of two data points; cited from earlier work
AKT1 = AKT1 (Homo sapiens, UniProt P31749); set-up: method as in PMID 21051136; details: 10 µM; average of two data points; cited from earlier work
Chain of AKT1 (P31749 whole entry, species assumed): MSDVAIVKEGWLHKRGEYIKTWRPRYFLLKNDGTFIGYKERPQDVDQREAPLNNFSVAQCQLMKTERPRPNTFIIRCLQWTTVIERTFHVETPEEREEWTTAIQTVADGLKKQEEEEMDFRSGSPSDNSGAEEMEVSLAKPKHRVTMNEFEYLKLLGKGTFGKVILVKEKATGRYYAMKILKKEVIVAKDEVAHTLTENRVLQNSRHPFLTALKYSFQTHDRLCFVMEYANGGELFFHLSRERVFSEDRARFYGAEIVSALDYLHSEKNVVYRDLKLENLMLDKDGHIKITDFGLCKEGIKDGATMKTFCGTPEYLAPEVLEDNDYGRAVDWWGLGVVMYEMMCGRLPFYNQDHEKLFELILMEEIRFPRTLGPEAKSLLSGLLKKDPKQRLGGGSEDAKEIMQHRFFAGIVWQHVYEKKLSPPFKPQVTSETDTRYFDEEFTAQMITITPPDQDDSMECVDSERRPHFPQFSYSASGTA

CK1-α1 = CK1-α1 (Homo sapiens, UniProt P48729); set-up: method as in PMID 21051136; details: 10 µM; average of two data points; cited from earlier work
SGK1 = biological target: T3, SGK1 (Homo sapiens, UniProt O00141); set-up: method as in PMID 21051136; details: 10 µM; average of two data points; cited from earlier work
T3 sequence (O00141 1-431): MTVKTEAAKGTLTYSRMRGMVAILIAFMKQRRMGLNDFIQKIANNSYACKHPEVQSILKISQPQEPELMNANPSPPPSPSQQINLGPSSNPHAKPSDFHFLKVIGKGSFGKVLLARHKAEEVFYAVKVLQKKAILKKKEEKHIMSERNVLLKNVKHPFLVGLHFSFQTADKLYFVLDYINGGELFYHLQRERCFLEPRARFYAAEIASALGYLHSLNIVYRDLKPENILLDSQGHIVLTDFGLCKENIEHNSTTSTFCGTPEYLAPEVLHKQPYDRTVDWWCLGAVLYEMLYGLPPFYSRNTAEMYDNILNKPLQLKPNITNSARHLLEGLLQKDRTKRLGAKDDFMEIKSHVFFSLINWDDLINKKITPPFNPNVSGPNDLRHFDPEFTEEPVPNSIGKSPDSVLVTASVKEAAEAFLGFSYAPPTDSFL

PAK1 = PAK1 (Homo sapiens, UniProt Q13153); set-up: method as in PMID 21051136; details: 10 µM; average of two data points; cited from earlier work
Chain of PAK1 (Q13153 whole entry): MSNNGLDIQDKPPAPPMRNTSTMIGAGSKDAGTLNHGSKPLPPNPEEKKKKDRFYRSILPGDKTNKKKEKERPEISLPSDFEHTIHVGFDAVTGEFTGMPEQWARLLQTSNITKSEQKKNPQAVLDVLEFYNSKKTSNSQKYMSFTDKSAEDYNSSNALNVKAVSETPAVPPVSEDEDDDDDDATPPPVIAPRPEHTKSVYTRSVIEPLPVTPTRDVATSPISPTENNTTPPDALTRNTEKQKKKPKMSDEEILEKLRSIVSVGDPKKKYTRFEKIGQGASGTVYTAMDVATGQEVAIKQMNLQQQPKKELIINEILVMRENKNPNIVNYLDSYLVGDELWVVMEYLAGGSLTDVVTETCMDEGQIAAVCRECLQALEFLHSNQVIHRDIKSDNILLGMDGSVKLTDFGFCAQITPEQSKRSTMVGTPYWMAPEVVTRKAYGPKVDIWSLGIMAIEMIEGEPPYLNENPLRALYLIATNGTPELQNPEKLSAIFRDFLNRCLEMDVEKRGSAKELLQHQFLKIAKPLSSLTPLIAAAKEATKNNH

FLT3 = biological target: T4, FLT3 (Homo sapiens, UniProt P36888); set-up: method as in PMID 21051136; details: 10 µM; cited from earlier work
T4 construct: purchased Invitrogen PV3182
T4 sequence (P36888 564-993 limits assumed): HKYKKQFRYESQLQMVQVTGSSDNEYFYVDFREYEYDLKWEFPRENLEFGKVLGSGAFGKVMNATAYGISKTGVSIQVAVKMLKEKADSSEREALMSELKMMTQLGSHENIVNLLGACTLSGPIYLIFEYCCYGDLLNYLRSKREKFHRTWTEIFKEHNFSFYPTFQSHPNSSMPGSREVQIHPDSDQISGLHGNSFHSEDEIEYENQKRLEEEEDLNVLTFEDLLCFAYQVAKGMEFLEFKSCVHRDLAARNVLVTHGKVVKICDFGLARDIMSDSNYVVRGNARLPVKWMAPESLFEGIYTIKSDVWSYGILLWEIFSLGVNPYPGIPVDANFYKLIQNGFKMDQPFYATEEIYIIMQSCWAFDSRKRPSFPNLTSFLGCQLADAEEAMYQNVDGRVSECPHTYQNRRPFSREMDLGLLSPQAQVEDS

[2] = set-up: method as in earlier work; details: SuperGen press release; cited from earlier work
JNK1 [3] = biological target: T2, JNK1; experiment: ProQinase kinase panel, % inhibition at fixed concentration; format: biochemical
Method: (§1) Once compounds 7 and 8 were synthesized, a pairwise comparison was performed to strictly evaluate the real impact of this fragment-hopping where imidazopyridazine is replaced by triazolopyridine.

INS-R = INS-R (Homo sapiens, UniProt P06213); experiment: as above; format: biochemical
Chain of INS-R (P06213 980-1382 limits assumed, species assumed): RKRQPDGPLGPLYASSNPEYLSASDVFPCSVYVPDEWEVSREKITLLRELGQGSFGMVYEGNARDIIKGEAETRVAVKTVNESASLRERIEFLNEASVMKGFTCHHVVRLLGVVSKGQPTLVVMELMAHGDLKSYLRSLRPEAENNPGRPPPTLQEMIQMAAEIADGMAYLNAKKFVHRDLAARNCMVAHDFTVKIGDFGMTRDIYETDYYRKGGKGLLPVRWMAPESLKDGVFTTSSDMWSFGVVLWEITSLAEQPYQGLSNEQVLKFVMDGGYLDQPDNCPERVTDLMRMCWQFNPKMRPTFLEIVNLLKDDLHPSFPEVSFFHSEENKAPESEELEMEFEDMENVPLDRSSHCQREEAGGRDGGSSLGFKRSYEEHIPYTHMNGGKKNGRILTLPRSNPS
Method: as §1

[4] = compound 7 vs compound 1, 10 µM

Structure (SMILES): Oc1ccc(-c2cnc3ccc(NCc4ccc(F)cc4)nn23)cc1 [Compound 1]
ARK5 percentage of inhibition (ARK5): 71% | IC50 (PIM-3): 79 nM | JNK1 percentage of inhibition (JNK1 [1]): 62% | B-RAF-V600E percentage of inhibition (B-RAF-V600E): 54% | MET percentage of inhibition (MET): 32% | EGF-R percentage of inhibition (EGF-R): 33% | FGF-R1 percentage of inhibition (FGF-R1): 84% | AKT1 percentage of inhibition (AKT1): 0% | CK1-α1 percentage of inhibition (CK1-α1): 33% | SGK1 percentage of inhibition (SGK1): 73% | PAK1 percentage of inhibition (PAK1): 7% | FLT3 percentage of inhibition (FLT3): more than 90%

Structure (SMILES): CN1CCC(CNc2ccc3ncc(-c4cccc(OC(F)(F)F)c4)n3n2)CC1 [Compound 3, reference compound]
cardiac and pharmacokinetic data evaluation in Phase I trial [2]: failed to demonstrate a safe therapeutic window

inhibition at 10 µM (JNK1 [3]; inhibitor at 10 µM, average of two data points, read-out: JNK1 percentage of inhibition): 11% | inhibition at 10 µM (INS-R; inhibitor at 10 µM, average of two data points, read-out: INS-R percentage of inhibition): 32%
Structure (SMILES): Oc1ccc(-n2nnc3ccc(NCc4ccc(F)cc4)nc32)cc1 [Compound 7, 4-[5-(4-Fluoro-benzylamino)-[1], [2], [3]triazolo[4,5-b]pyridin-3-yl]-phenol]
JNK1 improvement in percentage of inhibition (JNK1 [3]; [4]): c (This designation indicates that the improvement in percentage of inhibition was equal or greater than 50%) | INS-R improvement in percentage of inhibition (INS-R; [4]): b (This designation indicates that the improvement in percentage of inhibition was equal or greater than 25%)
